In article PMC7934871 (JCI Insight, 2021):

Experiments:
[1] = system: pY705-STAT3; experiment: Western blotting of p-STAT3 in HCT116 cells; assay type: cell-based, human
From the text: (§1) Figure 3 PS-acet.-STAT3 peptide inhibits STAT3 activity and downregulates the expression of STAT3 targets. (A) Downregulation of STAT3 activity and its downstream target proteins shown in human HCT116 colorectal cancer cells by Western blotting (data represent 1 of the 3 experiments, n = 3). PO-acet.-STAT3 and PS-STAT3-K685R peptides were used in parallel as controls. (B) STAT3 inhibition regulated the expression of proliferation and apoptotic genes, assessed by real-time quantitative PCR. Data present mean ± SD, n = 3 independent experiments, 1-way ANOVA; ***P < 0.005; **P < 0.01. […] For p53 promoter assay, data represent 3 replicates in 3 independent experiments (n = 9). For cell proliferation assay, data represent 3 independent experiments. SD is shown (n = 3). One-way ANOVA; ***P < 0.005; **P < 0.01.
(§2) Whole cell lysates or tissue homogenates were prepared by using RIPA lysis buffer (50 mM Tris at pH 7.4, 150 mM NaCl, 1 mM EDTA, 0.5% NP-40, 1 mM NaF, 15% glycerol, and 20 mM β-glycerophosphate). A protease inhibitor cocktail (Mini Protease Inhibitor Cocktail; Roche) and a tyrosine phosphatase inhibitor, sodium orthovanadate (Na3VO4, 1 mM), were added freshly to the lysis buffer. Protein amounts were determined by BCA using a Thermo Fisher Scientific kit. Normalized protein amounts were subjected to an SDS-PAGE and transferred onto a nitrocellulose membrane for Western blotting. […] The protein levels for STAT1 (sc-346, E-23), STAT3 (sc-482, C-20), STAT5 (sc-74442, A-9), Crm1 (exportin 1) (sc-5595, H-300), CAS (exportin 2) (sc-271537, H-2), exportin 5 (sc-66885, H-300), and exportin 7 (sc-98639, H-82) were determined using antibodies from Santa Cruz Biotechnology Inc. Anti–exportin 3 (exportin T, 630622, LOS1 05-1525), anti–exportin 4 (3499-1), and anti–exportin 6 (11408-1-AP) were from MilliporeSigma, Epitomics, and Proteintech, respectively. […]
Supplemental Figure 4 (related to Figure 1). […] Phosphorylation of STAT3 at Y705 and STAT5 at Y694 was detected by Western blotting after 48 hours treatment of PS-acet.-STAT3 peptide (1 µM) or napabucasin (1 µM) in HCT116 cells. […]

[2] = target: STAT3 (Homo sapiens, UniProt P40763); experiment: Immunoprecipitation and Western blotting, STAT3; assay type: binding; design: endogenous in cells; host or cells: U251; details: immunoprecipitation, Western blotting, U251 cells
From the text: (§3) Figure 2 PS-acet.-STAT3-peptide specifically binds STAT3 in the nucleus. (A) Penetration of PS-acet.-STAT3 peptide and its colocalization with STAT3 protein in U251 cells are confirmed by confocal microscopy. Scale bars: 50 μm. Insets: original magnification, ×40. (B) PS-acet.-STAT3 peptide specifically binds to STAT3 protein, not STAT1 and STAT5 proteins, shown in U251 cells by immunoprecipitation followed by Western blotting (left panel). Expression of total STAT1, STAT3, and STAT5 was confirmed by Western blotting in U251 cells (input protein level, right panel).
as §2, with “A protease inhibitor cocktail (Mini Protease Inhibitor Cocktail; Roche) and a tyrosine phosphatase inhibitor, sodium orthovanadate (Na3VO4, 1 mM), were added freshly to the lysis buffer.” left out, “kit.” for “kit. Normalized protein amounts were subjected to an SDS-PAGE and transferred onto a nitrocellulose membrane for Western blotting.”

[3] = system: STAT5; experiment: Immunoprecipitation and Western blotting, STAT5; assay type: binding, human; details: immunoprecipitation, Western blotting, U251 cells
From the text: as §3
as §2, with “A protease inhibitor cocktail (Mini Protease Inhibitor Cocktail; Roche) and a tyrosine phosphatase inhibitor, sodium orthovanadate (Na3VO4, 1 mM), were added freshly to the lysis buffer.” left out, “kit.” for “kit. Normalized protein amounts were subjected to an SDS-PAGE and transferred onto a nitrocellulose membrane for Western blotting.”

[4] = system: STAT3-regulated genes; experiment: Expression of STAT3 targets in HCT116 cells (Western blotting, qPCR); assay type: cell-based, human
From the text: as §1, with “For cell proliferation assay, data represent 3 independent experiments. SD is shown (n = 3). One-way ANOVA; ***P < 0.005; **P < 0.01.” left out
Whole cell lysates or tissue homogenates were prepared by using RIPA lysis buffer (50 mM Tris at pH 7.4, 150 mM NaCl, 1 mM EDTA, 0.5% NP-40, 1 mM NaF, 15% glycerol, and 20 mM β-glycerophosphate). […] Protein amounts were determined by BCA using a Thermo Fisher Scientific kit. […]
Total RNA was extracted from cultured or tumor tissues using RNeasy kit (QIAGEN), according to manufacturer’s instruction. After cDNA synthesis using iScript cDNA Synthesis kit (Bio-Rad), samples were analyzed using pairs of primers specific for CASP9, CASP3, CASP8, BIRC5, BCL2L1, MYC, TP53, VEGF, IL1B, SERPIN3, FGA, CDK4, CCND2, CDKN2A, CDKN2B, GADD45A, mCD274, mMmp9, and mBirc5, as indicated. […]

[5] = system: p53 promoter; experiment: Luciferase reporter gene assay, p53 promoter; assay type: cell-based, human; details: HCT116, 1 μM, overnight at 37°C
From the text: as §1
A total of 1–2 × 10^6 HCT116 cells were seeded into each well of a 24-well plate (Cellstar) and transfected with a 13x RGC plasmid, with a Renilla luciferase construct (both plasmids provided by Bernhard Lüscher, RWTH, Aachen, Germany), using Lipofectamine 2000 (Invitrogen, Thermo Fisher Scientific), according to manufacturer’s instruction. On the following day, cells were treated with 1 μM of PO- and PS-acet.-STAT3 peptides at 37°C overnight. Luciferase activities were determined using the luciferase assay system (Promega).

STAT3, sequence (P40763 whole entry): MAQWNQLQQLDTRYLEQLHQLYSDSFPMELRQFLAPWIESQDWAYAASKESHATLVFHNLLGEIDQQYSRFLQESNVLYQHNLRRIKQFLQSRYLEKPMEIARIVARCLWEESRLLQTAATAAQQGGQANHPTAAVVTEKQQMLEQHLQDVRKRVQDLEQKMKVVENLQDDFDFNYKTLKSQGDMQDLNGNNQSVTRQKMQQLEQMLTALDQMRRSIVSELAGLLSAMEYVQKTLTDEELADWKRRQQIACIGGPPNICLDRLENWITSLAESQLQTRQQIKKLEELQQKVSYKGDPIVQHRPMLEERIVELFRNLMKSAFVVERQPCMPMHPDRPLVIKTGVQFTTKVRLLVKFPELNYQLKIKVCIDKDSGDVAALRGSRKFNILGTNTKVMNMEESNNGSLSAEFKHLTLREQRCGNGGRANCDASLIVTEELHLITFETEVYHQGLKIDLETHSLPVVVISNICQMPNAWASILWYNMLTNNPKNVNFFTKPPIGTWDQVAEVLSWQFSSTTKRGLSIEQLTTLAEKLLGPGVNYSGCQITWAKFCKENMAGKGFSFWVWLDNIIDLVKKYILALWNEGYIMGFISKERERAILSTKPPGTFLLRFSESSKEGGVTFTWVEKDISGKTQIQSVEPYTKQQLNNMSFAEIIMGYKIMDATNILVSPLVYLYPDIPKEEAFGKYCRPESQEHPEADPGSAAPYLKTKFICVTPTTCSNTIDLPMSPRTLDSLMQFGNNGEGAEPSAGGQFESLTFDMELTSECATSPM

## PDIPKEEAFGK685(Ac)YCRPESQEHPC-linker-T*C*C*A*T*G*A*G*C*T*T*C*C*T*G*A*T*G*C*T [PS-acet.-STAT3 peptide]
[1]; HCT116, 1 µM, 48 hours
  phosphorylated STAT3 (p-STAT3, Y705) level: reduced
[1]; HCT116, approximately 1 μM
  STAT3 activation (pY705-STAT3): significant downregulation
[2]
  binding to STAT3 protein: specifically bound
[3]
  binding to STAT5 protein: not
[4]; HCT116, approximately 1 μM
  expression of STAT3-regulated genes Survivin (BIRC5) and MYC, protein and mRNA: significant downregulation
[4]; HCT116 and LoVo, real-time quantitative PCR
  expression of STAT3-suppressed apoptotic genes TP53, CASP9, CASP3: upregulated
[5]
  p53 promoter activity: significant increase
